Measurements published in patent US9023318B2, “Compounds with matrix-metalloproteinase inhibitory activity and imaging agents thereof” (Siemens Medical Solutions USA, Inc., priority 2011, dated 2015).

Tests used:
recombinant MMP-2 = biological target: T1, recombinant MMP-2 (Homo sapiens, UniProt P08253); test: MMP compound screening, recombinant MMP-2 (SensoLyte 390 Generic MMP Activity Kit); format: biochemical; details: for inhibition at 0.01 µM: 10 nM compound; for IC50: 2 nM enzyme, 30 min pre-incubation at 37° C.
T1 sequence (P08253 110-660): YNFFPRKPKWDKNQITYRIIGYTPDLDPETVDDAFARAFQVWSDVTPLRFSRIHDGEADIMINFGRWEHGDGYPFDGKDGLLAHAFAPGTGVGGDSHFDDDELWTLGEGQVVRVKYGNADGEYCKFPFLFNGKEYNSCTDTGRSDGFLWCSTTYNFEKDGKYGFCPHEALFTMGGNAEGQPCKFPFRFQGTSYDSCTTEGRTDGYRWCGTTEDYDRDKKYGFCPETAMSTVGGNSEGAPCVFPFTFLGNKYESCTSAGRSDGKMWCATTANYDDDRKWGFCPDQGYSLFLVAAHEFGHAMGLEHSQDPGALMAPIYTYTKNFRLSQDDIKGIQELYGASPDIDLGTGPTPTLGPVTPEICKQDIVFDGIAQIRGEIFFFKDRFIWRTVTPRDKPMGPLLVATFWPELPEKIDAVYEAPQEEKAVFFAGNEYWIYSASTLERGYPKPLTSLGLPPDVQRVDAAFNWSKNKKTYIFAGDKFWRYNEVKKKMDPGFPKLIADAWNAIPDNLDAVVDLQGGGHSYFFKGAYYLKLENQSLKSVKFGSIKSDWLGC
Description: (§1) The activities were determined using Fluorimetric SensoLyte® 390 Generic MMP Activity Kit from Anaspec (cat #72202). This assay kit can detect the activity of several MMPs such as MMP-1, 2, 7, 8, 9, 13, 14, 15, 16 and 24.
(§2) For screening MMP compounds, activated 2 nM of recombinant MMP-2, 8, 9 or 13 are pre-incubated with MMP compound (inhibitor) for 30 min at 37° C. The substrate is added and the inhibition of MMP activity is expressed as % of total activity (without the inhibitor incubation).

recombinant MMP-13 = recombinant MMP-13 (Homo sapiens, UniProt P45452); test: MMP compound screening, recombinant MMP-13 (SensoLyte 390 Generic MMP Activity Kit); format: biochemical; details: read-out: inhibition of MMP-13 activity, % of total activity; for inhibition at 0.01 µM: 10 nM compound; for inhibition at 0.1 µM: 100 nM (0.1 uM) compound
Description: as §1, §2

recombinant MMP-9 = recombinant MMP-9 (Homo sapiens, UniProt P14780); test: MMP compound screening, recombinant MMP-9 (SensoLyte 390 Generic MMP Activity Kit); format: biochemical; details: for inhibition at 0.01 µM: 10 nM compound
Description: as §1, §2

recombinant MMP-8 = recombinant MMP-8 (Homo sapiens, UniProt P22894); test: MMP compound screening, recombinant MMP-8 (SensoLyte 390 Generic MMP Activity Kit); format: biochemical; details: read-out: inhibition of MMP-8 activity, % of total activity; for inhibition at 0.01 µM: 10 nM compound; for inhibition at 0.1 µM: 100 nM (0.1 uM) compound
Description: as §1, §2

[1] = Biodistribution of M005: tumor and tissue fluorescence scans; format: in vivo, mouse; details: 4 h uptake time, Cy5 channel
Description: FIGS. 3-5 are mouse scans before and 4 hours after […] injection.

MMP = MMP inhibition, general statement; format: biochemical
Description: as §1, §2

[2] = read-out: inhibition of MMP-2 activity, % of total activity
[3] = read-out: inhibition of MMP-9 activity, % of total activity

recombinant MMP-9, sequence (P14780 107-707 limits assumed, species assumed): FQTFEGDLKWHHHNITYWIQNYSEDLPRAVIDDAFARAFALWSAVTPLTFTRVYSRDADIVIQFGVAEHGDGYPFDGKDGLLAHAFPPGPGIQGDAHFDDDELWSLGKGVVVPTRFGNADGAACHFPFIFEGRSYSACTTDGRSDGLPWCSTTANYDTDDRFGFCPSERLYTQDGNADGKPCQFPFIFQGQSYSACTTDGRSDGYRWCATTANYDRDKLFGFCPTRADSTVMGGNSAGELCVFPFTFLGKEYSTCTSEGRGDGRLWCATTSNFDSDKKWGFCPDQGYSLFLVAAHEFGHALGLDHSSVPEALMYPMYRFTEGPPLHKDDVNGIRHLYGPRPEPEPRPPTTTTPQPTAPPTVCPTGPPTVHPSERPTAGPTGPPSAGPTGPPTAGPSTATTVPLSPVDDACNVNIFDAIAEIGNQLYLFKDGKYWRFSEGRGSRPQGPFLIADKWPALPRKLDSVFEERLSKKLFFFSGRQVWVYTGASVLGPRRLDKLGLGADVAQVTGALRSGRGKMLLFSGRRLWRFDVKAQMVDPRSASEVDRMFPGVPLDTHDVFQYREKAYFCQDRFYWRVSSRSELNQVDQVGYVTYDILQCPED
recombinant MMP-8, sequence (P22894 101-467, species assumed): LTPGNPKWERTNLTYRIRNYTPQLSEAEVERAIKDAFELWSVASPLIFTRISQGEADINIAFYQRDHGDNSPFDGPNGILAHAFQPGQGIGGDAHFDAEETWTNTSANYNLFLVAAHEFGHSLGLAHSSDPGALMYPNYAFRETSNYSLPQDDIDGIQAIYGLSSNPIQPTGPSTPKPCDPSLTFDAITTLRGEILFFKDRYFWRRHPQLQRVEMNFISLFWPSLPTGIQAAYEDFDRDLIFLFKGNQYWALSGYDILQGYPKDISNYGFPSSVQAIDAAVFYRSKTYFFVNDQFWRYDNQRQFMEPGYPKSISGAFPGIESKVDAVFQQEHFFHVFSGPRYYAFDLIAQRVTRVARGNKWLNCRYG

Structure (SMILES)	inhibition at 0.01 µM (recombinant MMP-2; [2])	inhibition at 0.01 µM (recombinant MMP-13)	inhibition at 0.01 µM (recombinant MMP-9; [3])	inhibition at 0.01 µM (recombinant MMP-8)	IC50 (recombinant MMP-2)	inhibition at 0.1 µM (recombinant MMP-13)	inhibition at 0.1 µM (recombinant MMP-8)	also measured
COc1ccc(S(=O)(=O)N(Cc2cn(CCOCCNC(=O)c3cc(C(=O)NCCOCCn4cc(CN([C@@H](C(=O)NO)C(C)C)S(=O)(=O)c5ccc(OC)cc5)nn4)cc(-n4cc(CCCF)nn4)c3)nn2)[C@H](C(=O)NO)C(C)C)cc1 [M011]	50%	75%	55%	57%	–	–	–	–
COc1ccc(S(=O)(=O)N(Cc2cn(CCOCCOCCOCCNC(=O)CCC(NC(=O)Cn3cc(CCCF)nn3)C(=O)NCCOCCOCCOCCn3cc(CN([C@@H](C(=O)NO)C(C)C)S(=O)(=O)c4ccc(OC)cc4)nn3)nn2)[C@@H](C(=O)NO)C(C)C)cc1 (some centres unmarked) [M009]	59%	64%	–	46%	–	–	–	inhibition of MMP-9 activity, % of total activity (recombinant MMP-9; concentration not given): 48%
CCN1C(=CC=CC=CC2=[N+](CCCCCC(=O)NCCCCC(NC(=O)Cn3cc(CCCF)nn3)C(=O)NCCOCCOCCOCCn3cc(CN(C(C(=O)NO)C(C)C)S(=O)(=O)c4ccc(OC)cc4)nn3)c3ccc4c(S(=O)(=O)O)cc(S(=O)(=O)[O-])cc4c3C2(C)C)C(C)(C)c2c1ccc1c(S(=O)(=O)O)cc(S(=O)(=O)O)cc21 (centres unmarked) [M005]	–	–	–	–	2 nM	–	–	IC50 (recombinant MMP-9; 2 nM enzyme, 30 min pre-incubation at 37° C.): 2.1 nM; uptake in tumor and tissue (fluorescence) ([1]; with and without tracer injection): uptake above background fluorescence of tissue; uptake into the brain ([1]; brain used as background tissue): no uptake of the tracer into the brain
COc1ccc(S(=O)(=O)N(Cc2cn(CCOCCn3cc(CN([C@@H](C(=O)NO)C(C)C)S(=O)(=O)c4ccc(OC)cc4)nn3)nn2)[C@H](C(=O)NO)C(C)C)cc1 [M007]	64%	96%	89%	94%	–	99%	100%	inhibition at 0.1 µM (recombinant MMP-2; 100 nM (0.1 uM) compound, read-out: inhibition of MMP-2 activity, % of total activity): 95%; inhibition at 0.1 µM (recombinant MMP-9; 100 nM (0.1 uM) compound, read-out: inhibition of MMP-9 activity, % of total activity): 100%; MMP inhibition (in words) (MMP): good MMP inhibition
COc1ccc(S(=O)(=O)N(Cc2cn(CCOCCNC(=O)c3cc(C(=O)O)cc(-n4cc(CCCF)nn4)c3)nn2)[C@@H](C(=O)NO)C(C)C)cc1 [M013]	66%	79%	67%	84%	–	–	–	–
COc1ccc(-c2cn(CCN([C@@H](C(=O)NO)C(C)C)S(=O)(=O)c3ccc(OC)cc3)nn2)cc1 [M001]	–	–	–	–	–	99%	92%	–
COc1ccc(S(=O)(=O)N(Cc2cn(CCOCCn3cc(CCCF)nn3)nn2)[C@@H](C(=O)NO)C(C)C)cc1 [M008]	82%	82%	78%	95%	–	–	–	–
COc1ccc(S(=O)(=O)N(Cc2cn(CCOCCOCCOCCNC(=O)CCCCC[N+]3=C(/C=C/C=C/C=C4\N(C)c5ccc6ccccc6c5C4(C)C)C(C)(C)c4c3ccc3ccccc43)nn2)[C@@H](C(=O)NO)C(C)C)cc1 [M004]	–	–	–	–	25 nM	91%	83%	–
CCN1\C(=C/C=C/C=C/C2=[N+](CCCCCC(=O)NCCOCCOCCOCCn3cc(CN([C@@H](C(=O)NO)C(C)C)S(=O)(=O)c4ccc(OC)cc4)nn3)c3ccc4c(S(=O)(=O)O)cc(S(=O)(=O)[O-])cc4c3C2(C)C)C(C)(C)c2c1ccc1c(S(=O)(=O)O)cc(S(=O)(=O)O)cc21 [M003]	–	–	–	–	5.2 nM	97%	97%	–
COc1ccc(S(=O)(=O)N(Cc2cn(CCOCCOCCOCCNC(=O)CCC(NC(=O)Cn3cc(CCCF)nn3)C(=O)NCCOCCOCCOCCn3cc(CN([C@@H](C(=O)NOC(C)(C)C)C(C)C)S(=O)(=O)c4ccc(OC)cc4)nn3)nn2)[C@@H](C(=O)NO)C(C)C)cc1 (some centres unmarked) [M010]	28%	10%	2%	13%	–	–	–	–
